According to publication PMC8041433 (Environmental Health Perspectives, 2021):
Values joined by “and” are separate entries in the source; they are usually repeats but may differ in a detail not shown here. Identical values can stand only once. Counter-ions that a name gives are not always drawn. Like-named read-outs stand apart in the source and are kept apart here.

Tests used:
[1] = target: AChE in neural stem cells (Homo sapiens, UniProt P22303); assay: cell-based
recombinant human AChE [2] = target: T1, recombinant human AChE (Homo sapiens, UniProt P22303); assay: biochemical; format: biochemical; conditions: for AC50: AC50 (uM)
recombinant human AChE [3] = target: T1, recombinant human AChE; assay: biochemical
recombinant human AChE [4] = target: T1, recombinant human AChE; assay: biochemical; remark: listed apart in the source
[5] = target: AChE in neural stem cell spheroids (Homo sapiens, UniProt P22303); assay: cell-based; conditions: for IC50: potency (IC50)
recombinant human AChE [6] = target: T1, recombinant human AChE
AChE in SH-SY5Y cells = AChE in SH-SY5Y cells (Homo sapiens, UniProt P22303); assay: cell-based
recombinant human AChE [7] = target: T1, recombinant human AChE; assay: biochemical; remark: listed apart in the source
[8] = target: AChE in SH-SY5Y spheroids (Homo sapiens, UniProt P22303); assay: cell-based; conditions: potency (IC50)
[9] = potency (IC50), Enzyme with microsomes
[10] = Neural stem cell spheroid (24 h)
[11] = potency (IC50), SH-SY5Y cells monolayer
[12] = Neural stem cell spheroid (48 h)
For IR or R in this document: key: Reversible (R); Irreversible (IR); ND, not detected in enzyme-based AChE inhibition assay from current study.

Chain of AChE in neural stem cells (P22303 32-614): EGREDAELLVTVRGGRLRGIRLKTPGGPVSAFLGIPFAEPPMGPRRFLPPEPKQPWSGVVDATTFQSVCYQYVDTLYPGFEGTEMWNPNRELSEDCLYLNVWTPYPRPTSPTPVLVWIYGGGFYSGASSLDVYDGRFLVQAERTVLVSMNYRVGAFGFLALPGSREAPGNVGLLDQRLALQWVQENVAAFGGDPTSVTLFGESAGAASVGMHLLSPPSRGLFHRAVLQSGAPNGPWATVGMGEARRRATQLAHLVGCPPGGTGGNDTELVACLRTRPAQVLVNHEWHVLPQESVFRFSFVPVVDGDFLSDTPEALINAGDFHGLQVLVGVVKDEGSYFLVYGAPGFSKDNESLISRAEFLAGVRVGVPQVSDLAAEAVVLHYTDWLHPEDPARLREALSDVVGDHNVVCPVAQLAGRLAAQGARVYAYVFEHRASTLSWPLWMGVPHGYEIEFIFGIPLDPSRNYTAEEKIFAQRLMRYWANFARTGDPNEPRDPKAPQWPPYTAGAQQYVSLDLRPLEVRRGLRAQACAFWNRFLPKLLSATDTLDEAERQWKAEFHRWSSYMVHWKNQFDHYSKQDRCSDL
T1 sequence (P22303 32-614): as above
Chain of AChE in SH-SY5Y spheroids (P22303 32-614): as above
Chain of AChE in neural stem cell spheroids (P22303 32-614): as above
Chain of AChE in SH-SY5Y cells (P22303 32-614): as above

| Compound | IC50 [1] [µM] | IR or R (recombinant human AChE [2]) | AC50 (recombinant human AChE [2]) | IC50 (recombinant human AChE [3]) [µM] | IC50 (recombinant human AChE [4]; [9]) [µM] | IC50 [5, 10] [µM] | CC-v2 (curve classes) (recombinant human AChE [6]) | Efficacy (recombinant human AChE [6]) | CC-v2 (curve classes) (AChE in SH-SY5Y cells) | IC50 (AChE in SH-SY5Y cells; IC50 (uM)) | IC50 (AChE in SH-SY5Y cells; [11]) [µM] | CC-v2 (curve classes) (recombinant human AChE [7]) | Efficacy (recombinant human AChE [7]) | IC50 (recombinant human AChE [7]; potency (IC50), Enzyme) [µM] | IC50 ([8]; SH-SY5Y spheroids (24 h)) [µM] | IC50 ([8]; SH-SY5Y spheroids (48 h)) [µM] | potency (IC50), Neural stem cell spheroid (24 h) [5] | IC50 [5, 12] [µM] | IC50 (recombinant human AChE [7]; IC50 (uM)) [µM] | AC50 (recombinant human AChE [2]; activity_5) | other results |
| --- | --- | --- | --- | --- | --- | --- | --- | --- | --- | --- | --- | --- | --- | --- | --- | --- | --- | --- | --- | --- | --- |
| O=c1[nH]c2ccc([S+]([O-])CCN3CCC(Cc4ccc(F)cc4)CC3)cc2o1 (centres unmarked) [Besonprodil, reference compound] | 15.8 ± 1.81 | R | 14 µM (2×) and 9.93 µM (2×) and 15.7 µM (2×) and 7.03 µM | 16.4 ± 1.11 | 15.8 ± 1.81 | 11.5 ± 3.7 | -2.1 | -73.433 | -1.1 | 6.33 µM | 8.57 ± 1.17 | -1.1 | -92.894 | 7.92 ± 0.91 | 4.75 ± 3.24 | 7.44 ± 1.68 |  |  |  |  | potency (IC50), Neural stem cell spheroid (48 h) [5]: Inactive |
| CCN(C(=O)c1cc(C)cc(OC[C@H](C)Nc2ccncc2)c1)C(C)C.Cc1ccc(S(=O)(=O)O)cc1 [GW473178E methyl benzene sulfonic acid] | 24.8 | R | 11 µM (2×) and 19.6 µM and 9.82 µM (3×) and 8.76 µM and 12.4 µM | 19.7 ± 2.26 | 18.9 |  | -2.2 | -52.62 | -1.1 | 12.5 µM and 11.1 µM | 23.3 | -2.1 | -70.195 | 10.6 | 9.63 | 24 | Inactive | 31.2 | 22.2 |  | IC50 (recombinant human AChE [4]; IC50 (uM)): 49.7 µM |
| CC(=O)Oc1cc(C(C)C)c(OCCN(C)C)cc1C [Moxisylyte hydrochloride, reference compound] | 19.3 | R |  | 20.1 ± 1.36 | 19.3 |  | -2.4 | -32.666 | -2.1 and -1.1 | 13.8 µM | 20.1 | -2.2 | -54.154 | 21.9 | 14.3 | 20.9 | Inactive | 24.3 |  | 19.3 µM and 17.2 µM and 21.7 µM | AC50 (recombinant human AChE [2]; activity_10): 19.3 µM and 24.3 µM and 21.7 µM; AC50 (recombinant human AChE [2]; activity_60): 17.2 µM and 24.3 µM and 21.7 µM |
| CN1C(=O)COc2c(C(=O)NC3CN4CCC3CC4)cc(Cl)cc21 (centres unmarked) [Azasetron hydrochloride, reference compound] | 6.88 | R | 17.2 µM (2×) and 3.43 µM and 21.7 µM and 19.3 µM (2×) and 12.2 µM (2×) and 15.3 µM | 8.98 ± 0.61 | 8.97 | 16.5 | 4 | 0 | -2.1 and -2.2 | 38.9 µM and 34.7 µM and 17.4 µM | 6.6 | -2.2 | -34.351 | 7.72 | 9.64 | 6.85 |  | 18.8 | 30.9 |  |  |
| CNC(=O)Oc1cccc2c1OC(C)(C)C2 [Carbofuran] | 2.19 ± 0.61 |  | 993 nM (2×) and 1.11 µM (2×) and 885 nM and 125 nM and 314 nM and 157 nM | 0.23 ± 0.03 | 0.22 ± 0.04 | 2.44 ± 0.61 | -1.1 |  | -1.1 | 0.0894 µM and 0.725 µM and 0.647 µM and 0.1 µM and 0.458 µM | 0.29 ± 0.05 | -1.1 |  | 0.09 | 0.64 ± 0.97 | 0.27 ± 0.05 |  | 4.82 ± 0.66 |  |  |  |
| CCOC(=O)c1ccc(NC(=O)CN2CCCCC2)cc1 [Sulcaine, reference compound] | 19.6 | R |  | 23.4 ± 1.53 | 23.4 | 15.6 | 4 | 0 | -2.1 | 30.9 µM and 27.5 µM and 15.5 µM | 15.3 | -2.2 | -40.558 | 20.1 | 12.9 | 20.9 |  | 13.7 | 30.9 | 24.3 µM and 27.3 µM | AC50 (recombinant human AChE [2]; activity_10): 24.3 µM and 27.3 µM; AC50 (recombinant human AChE [2]; activity_60): 21.7 µM and 27.3 µM |
